Test system: apple polyphenol oxidase
Assay: Polyphenol oxidase assay, color formation from catechol at 420 nm
Format: biochemical, Red Delicious apples
Details: for Average % Inhibition of apple PPO: average ± standard deviation, n = 6; for apple PPO activity: n=3, control 0.24±0.02
Procedure: Acetone powder containing apple polyphenol oxidase was prepared from Red Delicious apples. Cored and peeled apple pieces (200 g) were homogenized in a precooled blender along with 400 mL cold acetone (−20° C.) for 1 min and then filtered through Whatman No. 1 filter paper. The residue was extracted 3 times with 200 mL cold acetone and the resulting white powder was dried at room temperature, vacuum sealed in commercial plastic bags, and stored at −20° C. until needed. Crude PPO enzyme from the acetone powder was reconstituted in 0.1 M KH2PO4/Na2HPO4, pH 7.2 Containing 1% Triton X-100 (Bio-Rad Laboratories, Hercules, Calif.) using modified procedures of Murata et al. “Relationship between apple ripening and browning—changes in polyphenol content and polyphenol oxidase”, Journal of Agricultural and Food Chemistry 1995, 43 (5), 1115-21 and Yemenicioglu et al. “Heat inactivation kinetics of apple polyphenoloxidase and activation of its latent form”, Journal of Food Science 1997, 62 (3): 508-10. Acetone powder (1 g) was added to 50 mL of refrigerated 0.1 M KH2PO4/Na2HPO4, pH 7.2 buffer containing 1% TritonX-100 (Bio-Rad Laboratories, Hercules, Calif.) and the mixture was stirred for 20 min at 4° C. The suspension was centrifuged at 1200×g for 30 min, then filtered through glass wool and stored at −20° C. where it remained stable for at least 1 month.
A standard reaction mixture for evaluation of browning inhibition where the hypotaurine comprising solution was a mussel extract, consisted of 2.45 mL of 0.1 sodium acetate/acetic acid buffer, pH 5.5, 0.2 ml mussel extract (or additional pH 5.5 buffer for a control run for comparison), 0.3 mL of 0.5 M catechol (Sigma, St. Louis, Mo.) and 0.05 mL of enzyme extract. The percent inhibition was calculated with the following formula: I=100*(A-B)/A, where A and B are the greatest initial linear rate of the control and the test system respectively.
Polyphenol oxidase activity was measured by monitoring the increase in color (absorbance at 420 nm) in a reaction mixture with catechol as a substrate. […] From the data in FIG. 1, the inhibition of polyphenol oxidase by 90 ppm of hypotaurine was calculated to be 97 percent with a 30 fold decrease in the rate of browning. The mussel extract was employed in a similar manner and inhibition was calculated to be 93 percent with a 14 fold decrease in the rate of browning. […]

[1] = 90 ppm of hypotaurine, catechol substrate, FIG. 1

Row | SMILES | Average % Inhibition of apple PPO (67.5 μM) [%] | Average % Inhibition of apple PPO (250 μM) [%] | Average % Inhibition of apple PPO (500 μM) [%] | apple PPO activity (67.5 μM) | apple PPO activity (250 μM) | apple PPO activity (500 μM) | inhibition of apple PPO (in words) (67.5 to 500 μM) | Average % Inhibition of apple PPO (500 μM, listed as methane sulfinic acid) [%] | Average % Inhibition of apple PPO (500 μM, listed as hypotaurine) [%] | fold decrease in the rate of browning [1] [fold] | inhibition of polyphenol oxidase [1] [%]
1 | O=S(O)c1ccccc1 [Benzene Sulfinic Acid, benzene sulfinic acid] | 20.9 ± 16.15 | 98.5 ± 1.28 | 100 |  |  |  |  |  |  |  | 
2 | NCCS(=O)(=O)O [Taurine, reference compound] |  |  |  | 0.23±0.04 ΔA420 nm/min | 0.25±0.01 ΔA420 nm/min | 0.23±0.01 ΔA420 nm/min | did not inhibit |  |  |  | 
3 | CS(=O)O [Methane Sulfinic Acid, methane sulfinic acid] | 33.7 ± 0.69 | 96.8 ± 0.69 | 99.8 ± 0.11 |  |  |  |  | 100 |  |  | 
4 | NCCS(=O)O [Hypotaurine, 2-aminoethane sulfinic acid] | 39.1 ± 4.48 | 80.0 ± 14.90 | 89.8 ± 7.65 |  |  |  |  |  | 89 | 30 | 97
